Assay results published in patent US10844057B2, “Process for preparing JAK inhibitors and intermediates thereof” (priority 2018, dated 2020).
Like-named read-outs stand apart in the source and are kept apart here.

Experiments:
[1] = test system: IL-2 stimulated STAT5 phosphorylation in Tall-1 human T cell line; assay: Inhibition of IL-2 stimulated pSTAT5 in Tall-1 T cells; type: cell-based
Protocol: Assay 2: Inhibition of IL-2 Stimulated pSTAT5 in Tall-1 T Cells
The potency of test compounds for inhibition of interleukin-2 (IL-2) stimulated STAT5 phosphorylation was measured in the Tall-1 human T cell line (DSMZ) using AlphaLisa.
Phosphorylated STAT5 was measured via the AlphaLISA SureFire Ultra pSTAT5 (Tyr694/699) kit (PerkinElmer).
Compounds were serially diluted in DMSO and dispensed acoustically to empty wells. Assay media (phenol red-free DMEM (Life Technologies) supplemented with 10% FBS (ATCC)) was dispensed (4 μL/well) and plates shaken at 900 rpm for 10 mins. Cells were seeded at 45,000 cells/well in assay media (4 μL/well), and incubated at 37° C., 5% CO2 for 1 hour, followed by the addition of IL-2 (R&D Systems; final concentration 300 ng/mL) in pre-warmed assay media (4 μL) for 30 minutes. […] The lysate was shaken at 900 rpm for 10 minutes at room temperature (RT). Phosphorylated STAT5 was measured via the pSTAT5 AlphaLisa kit (PerkinElmer). Freshly prepared acceptor bead mixture was dispensed onto lysate (5 μL) under green filtered <100 lux light. Plates were shaken at 900 rpm for 2 mins, briefly spun down, and incubated for 2 hrs at RT in the dark. Donor beads were dispensed (5 μL) under green filtered <100 lux light. Plates were shaken at 900 rpm for 2 minutes, briefly spun down, and incubated overnight at RT in the dark. Luminescence was measured with excitation at 689 nm and emission at 570 nm using an EnVision plate reader (PerkinElmer) under green filtered <100 lux light.
To determine the inhibitory potency of test compounds in response to IL-2, the average emission intensity of beads bound to pSTAT5 was measured in a human T cell line. IC50 values were determined from analysis of the inhibition curves of signal intensity versus compound concentration. Data are expressed as pIC50 (negative decadic logarithm IC50) values (mean±standard deviation).

[2] = test system: TSLP-evoked TARC release in human peripheral blood mononuclear cells; assay: Inhibition of TSLP-evoked TARC release in human peripheral blood mononuclear cells; type: cell-based; settings: Homo sapiens, PBMC, 48 h, read-out: pIC50 ± st. dev., inhibition of TSLP-evoked TARC release (converted)
From the text: Assay 4: Inhibition of TSLP-Evoked TARC Release in Human Peripheral Blood Mononuclear Cells
Thymic stromal lymphopoietin (TSLP) and thymus and activation-regulated chemokine (TARC) are overexpressed in asthmatic airways, and correlate with disease severity. In the lungs, TSLP may be released by bronchial epithelial cells in response to allergens and viral infections. TSLP signals through an IL-7Rα/TSLPR heterodimer found in a broad range of tissues and cell types, including epithelial cells, endothelial cells, neutrophils, macrophages, and mast cells. The binding of TSLP to its receptor induces a conformational change that activates JAK1 and JAK2 to phosphorylate various transcription factors, including STAT3 and STAT5. In immune cells, this triggers a cascade of intracellular events that result in cell proliferation, anti-apoptosis, dendritic cell migration, and production of Th2 cytokines and chemokines. In peripheral blood mononuclear cells (PBMC), TSLP has a proinflammatory effect by activating myeloid dendritic cells to attract and stimulate T cells, a process mediated by the chemoattractant TARC.
The potencies of the test compounds were measured for inhibition of TARC release.
PBMC aliquots (previously isolated from whole blood and frozen in aliquots at −80° C.) from 3 to 5 donors were thawed at 37° C. and added dropwise to 40 mL pre-warmed, sterile-filtered, complete RPMI media in 50 mL Falcon tubes. Cells were pelleted and resuspended in complete media at 2.24×10^6 cells/mL. […] Cells were allowed to rest for 1 hour at 37° C. with 5% CO2.
Compounds were received as 10 mM stock solutions in DMSO. 3.7-fold serial dilutions were performed to generate 9 concentrations of test compound in DMSO at 300× the final assay test concentration. […] 95 μL of 0.2% DMSO in complete media was added to the untreated control wells. Cells were pre-treated with compound for 1 hour at 37° C. with 5% CO2 prior to stimulation.
Immediately prior to use, an aliquot was thawed and prepared at 20× the final assay concentration in complete media. 10 μL of 20×TSLP was added to each well of PBMC, for a final assay concentration of 10 ng/mL. 10 μL of complete media was added to the unstimulated control wells. Cells were stimulated in the presence of compound for 48 hours at 37° C. with 5% CO2.
Following stimulation, the cell culture supernatants were harvested and TARC levels were detected by enzyme-linked immunosorbent assay (ELISA), using Human CCL17/TARC Quantikine ELISA Kit (R&D Systems # DDN00) according to the manufacturer's instructions.
For dose response analysis, the log [test compound (M)] was plotted versus the percent response values for each donor, and IC50 values were determined using a nonlinear regression analysis with GraphPad Prism Software using the 4-parameter sigmoidal dose-response algorithm with variable slope. Data are expressed as mean pIC50 (negative decadic logarithm IC50) values calculated from pIC50 values of individual donors and rounded to one decimal place.

JAK1 = JAK1 (Homo sapiens (Human), UniProt P23458); assay: Biochemical JAK kinase assay (LanthaScreen), JAK1; settings: converted from pIC50 using Cheng-Prusoff; ATP 25 μM
Sequence of JAK1 (P23458 whole entry): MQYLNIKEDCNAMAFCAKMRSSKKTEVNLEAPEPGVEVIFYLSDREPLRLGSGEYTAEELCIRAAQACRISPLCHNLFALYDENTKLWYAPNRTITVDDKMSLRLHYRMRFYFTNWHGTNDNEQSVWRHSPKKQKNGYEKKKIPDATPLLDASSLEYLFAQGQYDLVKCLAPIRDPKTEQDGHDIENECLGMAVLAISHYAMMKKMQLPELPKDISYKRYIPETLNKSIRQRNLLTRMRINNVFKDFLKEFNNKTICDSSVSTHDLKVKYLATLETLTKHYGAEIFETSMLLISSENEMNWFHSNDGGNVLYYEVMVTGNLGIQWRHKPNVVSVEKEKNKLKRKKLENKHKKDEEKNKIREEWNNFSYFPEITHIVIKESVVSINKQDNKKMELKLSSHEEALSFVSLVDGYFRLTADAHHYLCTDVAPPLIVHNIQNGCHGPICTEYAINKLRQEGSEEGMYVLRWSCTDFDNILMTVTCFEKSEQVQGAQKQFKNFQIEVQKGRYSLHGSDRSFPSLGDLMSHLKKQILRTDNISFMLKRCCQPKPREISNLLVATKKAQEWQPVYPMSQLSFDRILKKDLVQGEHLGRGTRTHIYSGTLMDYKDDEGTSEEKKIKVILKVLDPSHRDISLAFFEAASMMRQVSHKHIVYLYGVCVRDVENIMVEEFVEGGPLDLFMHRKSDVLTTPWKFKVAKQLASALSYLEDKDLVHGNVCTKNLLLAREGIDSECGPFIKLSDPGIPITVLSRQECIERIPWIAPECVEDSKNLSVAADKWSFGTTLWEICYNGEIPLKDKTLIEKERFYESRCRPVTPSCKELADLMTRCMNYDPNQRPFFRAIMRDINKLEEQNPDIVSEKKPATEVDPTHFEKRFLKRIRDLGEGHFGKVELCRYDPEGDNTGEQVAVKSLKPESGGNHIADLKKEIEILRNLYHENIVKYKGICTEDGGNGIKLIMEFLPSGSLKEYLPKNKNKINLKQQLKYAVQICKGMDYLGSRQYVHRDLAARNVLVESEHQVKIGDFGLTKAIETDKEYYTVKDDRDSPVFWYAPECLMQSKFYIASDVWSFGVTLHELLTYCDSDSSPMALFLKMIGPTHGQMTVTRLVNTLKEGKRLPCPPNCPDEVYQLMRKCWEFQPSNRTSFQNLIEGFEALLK
Protocol: (§1) Assay 1: Biochemical JAK Kinase Assays
(§2) A panel of four LanthaScreen JAK biochemical assays (JAK1, 2, 3 and Tyk2) were carried in a common kinase reaction buffer (50 mM HEPES, pH 7.5, 0.01% Brij-35, 10 mM MgCl2, and 1 mM EGTA). Recombinant GST-tagged JAK enzymes and a GFP-tagged STAT1 peptide substrate were obtained from Life Technologies.
(§3) Serially diluted compounds were pre-incubated with each of the four JAK enzymes and the substrate in white 384-well microplates (Corning) at ambient temperature for 1 h. ATP was subsequently added to initiate the kinase reactions in 10 μL total volume, with 1% DMSO. […] Kinase reactions were allowed to proceed for 1 hour at ambient temperature before a 10 μL preparation of EDTA (10 mM final concentration) and Tb-anti-pSTAT1 (pTyr701) antibody (Life Technologies, 2 nM final concentration) in TR-FRET dilution buffer (Life Technologies) was added. The plates were allowed to incubate at ambient temperature for 1 h before being read on the EnVision reader (Perkin Elmer). Emission ratio signals (520 nm/495 nm) were recorded and utilized to calculate the percent inhibition values based on DMSO and background controls.
(§4) For dose-response analysis, percent inhibition data were plotted vs. compound concentrations, and IC50 values were determined from a 4-parameter robust fit model with the Prism software (GraphPad Software). Results were expressed as pIC50 (negative logarithm of IC50) and subsequently converted to pKi (negative logarithm of dissociation constant, Ki) using the Cheng-Prusoff equation.

JAK2 = JAK2 (Homo sapiens (Human), UniProt O60674); assay: Biochemical JAK kinase assay (LanthaScreen), JAK2; settings: converted from pIC50 using Cheng-Prusoff; ATP 3 μM
Sequence of JAK2 (O60674 whole entry): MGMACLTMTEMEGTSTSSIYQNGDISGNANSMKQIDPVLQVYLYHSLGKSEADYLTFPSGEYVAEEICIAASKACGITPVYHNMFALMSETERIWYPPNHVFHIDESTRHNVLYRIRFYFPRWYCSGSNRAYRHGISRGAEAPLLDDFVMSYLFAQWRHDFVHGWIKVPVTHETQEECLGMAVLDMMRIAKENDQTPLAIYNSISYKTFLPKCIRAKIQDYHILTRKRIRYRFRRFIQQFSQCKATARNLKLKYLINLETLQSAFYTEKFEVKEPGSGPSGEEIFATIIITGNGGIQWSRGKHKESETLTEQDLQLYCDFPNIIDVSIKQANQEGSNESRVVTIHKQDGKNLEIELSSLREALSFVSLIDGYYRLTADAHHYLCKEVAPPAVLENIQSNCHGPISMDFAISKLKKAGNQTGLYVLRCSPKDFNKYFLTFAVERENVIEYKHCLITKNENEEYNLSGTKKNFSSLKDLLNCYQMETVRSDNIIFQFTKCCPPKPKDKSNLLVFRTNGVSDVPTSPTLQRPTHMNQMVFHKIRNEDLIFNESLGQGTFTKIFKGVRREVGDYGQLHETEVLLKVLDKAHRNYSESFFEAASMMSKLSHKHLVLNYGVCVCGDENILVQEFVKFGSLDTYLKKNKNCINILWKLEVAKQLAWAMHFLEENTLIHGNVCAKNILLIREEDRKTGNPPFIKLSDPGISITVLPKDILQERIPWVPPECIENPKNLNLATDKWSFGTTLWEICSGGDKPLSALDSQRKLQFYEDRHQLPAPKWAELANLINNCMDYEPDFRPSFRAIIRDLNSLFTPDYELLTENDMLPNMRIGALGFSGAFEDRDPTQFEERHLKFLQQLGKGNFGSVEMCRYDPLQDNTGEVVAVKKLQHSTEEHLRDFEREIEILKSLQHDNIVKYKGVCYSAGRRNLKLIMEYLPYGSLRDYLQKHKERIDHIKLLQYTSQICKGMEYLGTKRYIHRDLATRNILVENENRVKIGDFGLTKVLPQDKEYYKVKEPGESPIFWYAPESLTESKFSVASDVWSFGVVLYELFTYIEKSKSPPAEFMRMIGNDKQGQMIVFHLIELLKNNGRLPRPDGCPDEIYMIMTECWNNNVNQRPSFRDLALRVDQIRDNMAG
Protocol: as §1, §2, §3, §4

JAK3 = JAK3 (Homo sapiens (Human), UniProt P52333); assay: Biochemical JAK kinase assay (LanthaScreen), JAK3; settings: converted from pIC50 using Cheng-Prusoff; ATP 1.6 μM
Sequence of JAK3 (P52333 whole entry): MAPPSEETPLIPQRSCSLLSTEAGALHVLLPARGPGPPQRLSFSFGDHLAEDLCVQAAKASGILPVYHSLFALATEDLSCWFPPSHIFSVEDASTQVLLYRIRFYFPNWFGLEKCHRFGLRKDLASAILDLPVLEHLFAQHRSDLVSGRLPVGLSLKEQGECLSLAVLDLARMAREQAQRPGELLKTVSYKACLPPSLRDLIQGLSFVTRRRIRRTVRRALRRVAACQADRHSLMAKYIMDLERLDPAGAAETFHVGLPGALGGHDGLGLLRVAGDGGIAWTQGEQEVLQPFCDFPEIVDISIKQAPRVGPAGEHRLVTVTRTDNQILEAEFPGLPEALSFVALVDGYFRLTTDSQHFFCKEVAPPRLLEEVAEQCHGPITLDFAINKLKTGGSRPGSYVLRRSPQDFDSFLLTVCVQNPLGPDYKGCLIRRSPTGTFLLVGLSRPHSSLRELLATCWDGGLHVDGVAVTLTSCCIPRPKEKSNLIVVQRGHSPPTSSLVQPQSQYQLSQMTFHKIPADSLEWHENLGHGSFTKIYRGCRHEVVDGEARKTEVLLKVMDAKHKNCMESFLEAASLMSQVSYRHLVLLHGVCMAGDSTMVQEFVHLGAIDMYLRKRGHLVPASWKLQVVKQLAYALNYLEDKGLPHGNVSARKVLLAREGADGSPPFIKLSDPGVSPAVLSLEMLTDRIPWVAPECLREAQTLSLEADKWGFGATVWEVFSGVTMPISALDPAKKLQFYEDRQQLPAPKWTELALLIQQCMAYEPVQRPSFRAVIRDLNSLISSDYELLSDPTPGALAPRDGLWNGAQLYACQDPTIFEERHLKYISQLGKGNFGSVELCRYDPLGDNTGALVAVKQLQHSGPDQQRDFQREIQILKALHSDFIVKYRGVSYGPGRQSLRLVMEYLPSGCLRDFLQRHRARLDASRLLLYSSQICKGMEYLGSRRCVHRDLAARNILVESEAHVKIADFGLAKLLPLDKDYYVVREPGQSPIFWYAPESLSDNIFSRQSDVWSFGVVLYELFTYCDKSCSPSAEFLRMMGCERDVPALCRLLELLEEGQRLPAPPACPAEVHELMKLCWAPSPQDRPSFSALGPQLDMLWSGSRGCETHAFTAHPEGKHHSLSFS
Protocol: as §1, §2, §3, §4

Tyk2 = Tyk2 (Homo sapiens (Human), UniProt P29597); assay: Biochemical JAK kinase assay (LanthaScreen), Tyk2; settings: converted from pIC50 using Cheng-Prusoff; ATP 10 μM
Sequence of Tyk2 (P29597 whole entry): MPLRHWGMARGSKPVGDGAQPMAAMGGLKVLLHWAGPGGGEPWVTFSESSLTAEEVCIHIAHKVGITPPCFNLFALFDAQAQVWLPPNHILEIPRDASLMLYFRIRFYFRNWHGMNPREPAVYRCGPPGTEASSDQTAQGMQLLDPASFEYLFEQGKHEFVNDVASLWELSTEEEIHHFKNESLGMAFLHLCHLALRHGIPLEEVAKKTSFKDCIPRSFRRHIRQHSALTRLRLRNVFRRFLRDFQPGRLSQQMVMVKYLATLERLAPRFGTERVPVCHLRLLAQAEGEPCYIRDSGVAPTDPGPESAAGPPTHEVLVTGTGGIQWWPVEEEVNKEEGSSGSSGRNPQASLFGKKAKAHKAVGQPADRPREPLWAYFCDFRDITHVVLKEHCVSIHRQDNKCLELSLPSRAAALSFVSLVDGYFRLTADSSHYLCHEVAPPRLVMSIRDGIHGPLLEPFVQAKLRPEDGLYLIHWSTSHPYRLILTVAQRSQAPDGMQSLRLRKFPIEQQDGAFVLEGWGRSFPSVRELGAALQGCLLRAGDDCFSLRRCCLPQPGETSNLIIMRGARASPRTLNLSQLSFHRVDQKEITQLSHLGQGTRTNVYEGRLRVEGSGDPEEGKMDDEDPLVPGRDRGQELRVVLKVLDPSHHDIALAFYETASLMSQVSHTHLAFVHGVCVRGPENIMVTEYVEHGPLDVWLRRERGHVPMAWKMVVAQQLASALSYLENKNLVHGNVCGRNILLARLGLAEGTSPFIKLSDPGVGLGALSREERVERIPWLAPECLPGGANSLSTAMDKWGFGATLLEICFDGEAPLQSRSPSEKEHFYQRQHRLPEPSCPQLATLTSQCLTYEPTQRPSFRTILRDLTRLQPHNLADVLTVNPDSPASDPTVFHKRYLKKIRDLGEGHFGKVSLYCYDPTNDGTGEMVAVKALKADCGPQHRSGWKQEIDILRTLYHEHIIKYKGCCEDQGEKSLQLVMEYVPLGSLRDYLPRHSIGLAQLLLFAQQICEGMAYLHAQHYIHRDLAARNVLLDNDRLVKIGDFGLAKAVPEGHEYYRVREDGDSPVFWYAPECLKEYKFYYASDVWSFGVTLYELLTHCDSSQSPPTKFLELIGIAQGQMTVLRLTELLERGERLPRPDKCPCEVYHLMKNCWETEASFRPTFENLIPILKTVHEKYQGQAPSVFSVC
Protocol: as §1, §2, §3, §4

[3] = Lung and plasma exposure in mice after oral aspiration; type: in vivo; settings: mouse, other: oral aspiration, 50 µg/animal; for Kp at 5 h: Balb/c, lung and plasma, lung ng/g to plasma ng/mL, mice, read-out: Lung to Plasma ratio at 5 hr; for concentration at 5 h: Balb/c mice, 1 mg/mL, 50 μL via oral aspiration
Protocol: Adult Balb/c mice from Harlan were used in the assay. […] Animals were placed in lateral recumbency post dose and monitored for full recovery from anesthesia before being returned to their home cage. Four hours later, animals were once again briefly anesthetized and challenged with either vehicle or IL-13 (0.03 μg total dose delivered, 50 μL total volume) via oral aspiration before being monitored for recovery from anesthesia and returned to their home cage. One hour after vehicle or IL-13 administration, whole blood and lungs were collected for both pSTAT6 detection in lung homogenates using a Perkin Elmer AlphaLISA® SureFire® Ultra™ HVp-STAT6 (Tyr641) assay kit and for total drug concentration analysis in both lung and plasma. Blood samples were centrifuged (Eppendorf centrifuge, 5804R) for 4 minutes at approximately 12,000 rpm at 4° C. to collect plasma. […] Plasma and lung levels of test compound were determined by LC-MS analysis against analytical standards constructed into a standard curve in the test matrix. A lung to plasma ratio was determined as the ratio of the lung concentration in ng/g to the plasma concentration in ng/mL at 5 hours.

[4] = TALL-1, read-out: Tall-1 pIC50 (converted)
[5] = IL-2 300 ng/mL, pSTAT5 AlphaLisa, Tall-1 cells, read-out: Tall-1 pIC50 (converted)
[6] = lung, read-out: Lung Concentration (ng/g) at 5 hr
[7] = plasma, read-out: Plasma Concentration (ng/mL) at 5 hr

Compound | IC50 [1, 4] [nM] | IC50 [2] [nM] | JAK1 pKi (JAK1) | JAK2 pKi (JAK2) | JAK3 pKi (JAK3) | Tyk2 pKi (Tyk2) | IC50 [1, 5] [nM] | Kp at 5 h [3] | concentration at 5 h [3, 6] [ng/g] | concentration at 5 h [3, 7] [ng/mL]
CCc1cc(O)ccc1-c1ccc2c(-c3nc4c([nH]3)CN(C(C)C)[C@H](C(=O)N3CCCN(C)CC3)C4)n[nH]c2c1 [Example 4, (S)-(2-(6-(2-ethyl-4-hydroxyphenyl)-1H-indazol-3-yl)-5-isopropyl-4,5,6,7-tetrahydro-3H-imidazo[4,5-c]pyridin-6-yl)(4-methyl-1,4-diazepan-1-yl)methanone] | 2.51 | 158 | – | – | – | – | – | – | – | –
CCc1cc(O)ccc1-c1ccc2c(-c3nc4c([nH]3)CN(C(C)C)[C@H](C(=O)N3CC[C@H](N(C)C)C3)C4)n[nH]c2c1 [Example 6, ((S)-3-(dimethylamino)pyrrolidin-1-yl)((S)-2-(6-(2-ethyl-4-hydroxyphenyl)-1H-indazol-3-yl)-5-isopropyl-4,5,6,7-tetrahydro-3H-imidazo[4,5-c]pyridin-6-yl)methan One] | 2 | 158 | – | – | – | – | – | – | – | –
CCc1cc(O)ccc1-c1ccc2c(-c3nc4c([nH]3)CN(CC)[C@H](C(=O)N3CC(N(C)C)C3)C4)n[nH]c2c1 [Example 9, (S)-(3-(dimethylamino)azetidin-1-yl)(5-ethyl-2-(6-(2-ethyl-4-hydroxyphenyl)-1H-indazol-3-yl)-4,5,6,7-tetrahydro-3H-imidazo[4,5-c]pyridin-6-yl)methanone] | – | – | 10.3 | 10.7 | 10.3 | 9.2 | 2 | 339 | 7750 ± 1650 | 23 ± 6
CCc1cc(O)ccc1-c1ccc2c(-c3nc4c([nH]3)CN(CC)[C@H](C(=O)N3CC(C)(N(C)C)C3)C4)n[nH]c2c1 [Example 10, (S)-(3-(dimethylamino)-3-methylazetidin-1-yl)(5-ethyl-2-(6-(2-ethyl-4-hydroxyphenyl)-1H-indazol-3-yl)-4,5,6,7-tetrahydro-3H-imidazo[4,5-c]pyridin-6-yl)methan One] | – | – | 10.4 | 10.6 | 10.2 | 9.1 | 2.51 | 216 | 5130 ± 2200 | 24 ± 6
CCc1cc(O)ccc1-c1ccc2c(-c3nc4c([nH]3)CN(C(C)C)[C@H](C(=O)N3CC(C)(N(C)C)C3)C4)n[nH]c2c1 [Example 11, (S)-(3-(dimethylamino)-3-methylazetidin-1-yl)(2-(6-(2-ethyl-4-hydroxyphenyl)-1H-indazol-3-yl)-5-isopropyl-4,5,6,7-tetrahydro-3H-imidazo[4,5-c]pyridin-6-yl)methan One] | – | – | 10.0 | 10.8 | 9.9 | 9.1 | 2 | 271 | 15000 ± 3350 | 55 ± 21
CCCN1Cc2[nH]c(-c3n[nH]c4cc(-c5ccc(O)cc5CC)ccc34)nc2C[C@H]1C(=O)N1CC(N(C)C)C1 [Example 12, (S)-(3-(dimethylamino)azetidin-1-yl)(2-(6-(2-ethyl-4-hydroxyphenyl)-1H-indazol-3-yl)-5-propyl-4,5,6,7-tetrahydro-3H-imidazo[4,5-c]pyridin-6-yl)methan One] | – | – | 10.5 | 10.6 | 10.3 | 9.0 | 2 | 281 | 6940 ± 4250 | 25 ± 9
CCCN1Cc2[nH]c(-c3n[nH]c4cc(-c5ccc(O)cc5CC)ccc34)nc2C[C@H]1C(=O)N1CC(C)(N(C)C)C1 [Example 13, (S)-(3-(dimethylamino)-3-methylazetidin-1-yl)(2-(6-(2-ethyl-4-hydroxyphenyl)-1H-indazol-3-yl)-5-propyl-4,5,6,7-tetrahydro-3H-imidazo[4,5-c]pyridin-6-yl)methan One] | – | – | 10.3 | 10.5 | 9.8 | 9.0 | 2.51 | 330 | 7460 ± 3080 | 23 ± 2.5
